Measurements: patent US12539292B2, “BRM targeting compounds and associated methods of use” (Arvinas Operations, Inc., priority 2018, dated 2026)

Target: T1, BRM (Homo sapiens, UniProt P51531)
T1 construct: In-Cell Western Screen of BRM Degradation in SW1573 Cells; endogenous in cells; host or cells: SW1573
Assay: In-cell Western screen of BRM degradation in SW1573 cells (Dmax and DC50)
Type: cell-based
Details: BRM degradation, SW1573 cells; for DC50: read-out: DC50; for Dmax: tested at the top concentration of between 0.3 and 10 μM, read-out: Dmax (%) (% degraded)
Outline: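 SW1573 cells were treated with compound overnight (18-20 h; final DMSO 0.1%), then fixed in 4% PFA, permeabilized with Triton X-100 and blocked. BRM was detected by in-cell Western using 800 nm anti-rabbit and 680 nm anti-mouse secondaries, and Dmax and DC50 were derived from the LI-COR Odyssey signal.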

T1 sequence (P51531 whole entry): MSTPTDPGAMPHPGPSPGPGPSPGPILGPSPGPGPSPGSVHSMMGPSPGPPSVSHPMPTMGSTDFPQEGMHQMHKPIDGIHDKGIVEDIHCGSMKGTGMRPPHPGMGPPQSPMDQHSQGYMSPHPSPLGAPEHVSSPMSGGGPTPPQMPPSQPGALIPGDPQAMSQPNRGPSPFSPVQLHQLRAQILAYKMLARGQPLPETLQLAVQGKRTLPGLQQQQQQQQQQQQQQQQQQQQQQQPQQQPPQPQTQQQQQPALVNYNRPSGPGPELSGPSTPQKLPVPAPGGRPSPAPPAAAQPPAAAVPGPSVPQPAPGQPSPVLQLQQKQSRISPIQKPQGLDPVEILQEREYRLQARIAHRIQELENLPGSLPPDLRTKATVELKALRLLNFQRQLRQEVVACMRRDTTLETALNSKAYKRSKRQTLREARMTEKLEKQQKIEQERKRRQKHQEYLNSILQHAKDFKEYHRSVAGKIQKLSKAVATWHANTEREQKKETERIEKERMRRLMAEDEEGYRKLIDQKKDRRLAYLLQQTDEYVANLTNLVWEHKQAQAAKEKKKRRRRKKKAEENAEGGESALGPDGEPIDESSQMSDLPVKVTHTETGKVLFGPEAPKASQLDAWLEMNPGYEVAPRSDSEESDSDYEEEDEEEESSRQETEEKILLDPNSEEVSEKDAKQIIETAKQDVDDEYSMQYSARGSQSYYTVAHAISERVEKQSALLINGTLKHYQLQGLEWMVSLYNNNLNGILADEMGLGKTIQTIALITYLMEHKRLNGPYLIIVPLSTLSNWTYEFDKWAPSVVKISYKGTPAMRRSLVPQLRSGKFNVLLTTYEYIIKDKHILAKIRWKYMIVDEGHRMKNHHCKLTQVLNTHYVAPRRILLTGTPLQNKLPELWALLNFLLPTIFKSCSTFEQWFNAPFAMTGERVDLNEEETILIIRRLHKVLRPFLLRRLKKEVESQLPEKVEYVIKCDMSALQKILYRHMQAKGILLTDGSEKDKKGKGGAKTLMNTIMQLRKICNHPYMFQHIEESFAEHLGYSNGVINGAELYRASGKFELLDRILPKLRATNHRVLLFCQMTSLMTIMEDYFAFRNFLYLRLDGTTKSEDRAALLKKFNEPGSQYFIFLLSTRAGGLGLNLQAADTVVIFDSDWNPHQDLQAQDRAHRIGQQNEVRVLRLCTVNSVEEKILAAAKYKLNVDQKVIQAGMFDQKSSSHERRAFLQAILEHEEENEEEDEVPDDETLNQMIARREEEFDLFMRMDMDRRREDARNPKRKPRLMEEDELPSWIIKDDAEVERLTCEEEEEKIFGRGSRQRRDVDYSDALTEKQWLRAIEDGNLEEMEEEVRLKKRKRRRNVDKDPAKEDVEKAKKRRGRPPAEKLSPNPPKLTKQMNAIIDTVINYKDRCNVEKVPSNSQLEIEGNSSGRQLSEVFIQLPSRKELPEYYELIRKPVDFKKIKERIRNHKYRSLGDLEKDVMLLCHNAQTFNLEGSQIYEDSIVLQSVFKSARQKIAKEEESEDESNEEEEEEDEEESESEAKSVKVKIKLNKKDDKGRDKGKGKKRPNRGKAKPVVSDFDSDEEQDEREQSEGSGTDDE

| Structure (SMILES) | DC50 [nM] | Dmax [%] |
| --- | --- | --- |
| Cc1ncsc1-c1ccc([C@H](C)NC(=O)[C@@H]2C[C@@H](O)CN2C(=O)[C@H](c2cc(OCCN3CCN(CCC#CCn4cc(-c5cc(-c6ccccc6O)nnc5N)cn4)CC3)no2)C(C)C)cn1 [compound 197, (2S,4R)-1-((S)-2-(3-(2-(4-(5-(4-(3-amino-6-(2-hydroxyphenyl)pyridazin-4-yl)-1H-pyrazol-1-yl)pent-3-yn-1-yl)piperazin-1-yl)ethoxy)isoxazol-5-yl)-3-methylbutanoyl)-4-hydroxy-N-((S)-1-(6-(4-methylthiazol-5-yl)pyridin-3-yl)ethyl)pyrrolidine-2-carboxamide] | > 30 | – |
| Cc1ncsc1-c1ccc([C@H](C)NC(=O)[C@@H]2C[C@@H](O)CN2C(=O)[C@H](c2onc(OCCN3CCN(CCOc4cc(N5C6CCC5CN(c5cc(-c7ccccc7O)nnc5N)C6)ccn4)CC3)c2F)C(C)C)cc1 [compound 198, (2S,4R)-1-((2S)-2-(3-(2-(4-(2-((4-(3-(3-amino-6-(2-hydroxyphenyl)pyridazin-4-yl)-3,8-diazabicyclo[3.2.1]octan-8-yl)pyridin-2-yl)oxy)ethyl)piperazin-1-yl)ethoxy)-4-fluoroisoxazol-5-yl)-3-methylbutanoyl)-4-hydroxy-N-((S)-1-(4-(4-methylthiazol-5-yl)phenyl)ethyl)pyrrolidine-2-carboxamide] | 10 to 30 | > 75 |
| Cc1ncsc1-c1ccc([C@H](CO)NC(=O)[C@@H]2C[C@@H](O)CN2C(=O)[C@@H](c2cc(OCCN3CCC(O[C@H]4C[C@H](Oc5cc(N6C7CCC6CN(c6cc(-c8ccccc8O)nnc6N)C7)ccn5)C4)CC3)no2)C(C)C)cc1 [compound 199, (2S,4R)-1-((2R)-2-(3-(2-(4-((1r,3R)-3-((4-(3-(3-amino-6-(2-hydroxyphenyl)pyridazin-4-yl)-3,8-diazabicyclo[3.2.1]octan-8-yl)pyridin-2-yl)oxy)cyclobutoxy)piperidin-1-yl)ethoxy)isoxazol-5-yl)-3-methylbutanoyl)-4-hydroxy-N-((R)-2-hydroxy-1-(4-(4-methylthiazol-5-yl)phenyl)ethyl)pyrrolidine-2-carboxamide] | < 2.5 | > 75 |
| Cc1ncsc1-c1ccc([C@H](CO)NC(=O)[C@@H]2C[C@@H](O)CN2C(=O)[C@H](c2cc(OCCN3CCC(O[C@H]4C[C@H](Oc5cc(N6C7CCC6CN(c6cc(-c8ccccc8O)nnc6N)C7)ccn5)C4)CC3)no2)C(C)C)cc1 [compound 200, (2S,4R)-1-((2S)-2-(3-(2-(4-((1r,3S)-3-((4-(3-(3-amino-6-(2-hydroxyphenyl)pyridazin-4-yl)-3,8-diazabicyclo[3.2.1]octan-8-yl)pyridin-2-yl)oxy)cyclobutoxy)piperidin-1-yl)ethoxy)isoxazol-5-yl)-3-methylbutanoyl)-4-hydroxy-N-((R)-2-hydroxy-1-(4-(4-methylthiazol-5-yl)phenyl)ethyl)pyrrolidine-2-carboxamide] | 2.5 to 10 | > 75 |
| COc1cc(-c2scnc2C)ccc1[C@H](C)NC(=O)[C@@H]1C[C@@H](O)CN1C(=O)[C@H](c1cc(OCCN2CCC(O[C@H]3C[C@H](Oc4cc(N5C6CCC5CN(c5cc(-c7ccccc7O)nnc5N)C6)ccn4)C3)CC2)no1)C(C)C [compound 201, (2S,4R)-1-((2S)-2-(3-(2-(4-((1r,3S)-3-((4-(3-(3-amino-6-(2-hydroxyphenyl)pyridazin-4-yl)-3,8-diazabicyclo[3.2.1]octan-8-yl)pyridin-2-yl)oxy)cyclobutoxy)piperidin-1-yl)ethoxy)isoxazol-5-yl)-3-methylbutanoyl)-4-hydroxy-N-((S)-1-(2-methoxy-4-(4-methylthiazol-5-yl)phenyl)ethyl)pyrrolidine-2-carboxamide] | 10 to 30 | > 75 |
| COc1cc(-c2scnc2C)ccc1[C@H](C)NC(=O)[C@@H]1C[C@@H](O)CN1C(=O)[C@@H](c1cc(OCCN2CCC(O[C@H]3C[C@H](Oc4cc(N5C6CCC5CN(c5cc(-c7ccccc7O)nnc5N)C6)ccn4)C3)CC2)no1)C(C)C [compound 202, (2S,4R)-1-((2R)-2-(3-(2-(4-((1r,3R)-3-((4-(3-(3-amino-6-(2-hydroxyphenyl)pyridazin-4-yl)-3,8-diazabicyclo[3.2.1]octan-8-yl)pyridin-2-yl)oxy)cyclobutoxy)piperidin-1-yl)ethoxy)isoxazol-5-yl)-3-methylbutanoyl)-4-hydroxy-N-((S)-1-(2-methoxy-4-(4-methylthiazol-5-yl)phenyl)ethyl)pyrrolidine-2-carboxamide] | < 2.5 | > 75 |
| CC(C)[C@@H](C(=O)N1C[C@H](O)C[C@H]1C(=O)N[C@@H](C)c1ccc(C#N)cc1)c1cc(OCCN2CCC(O[C@H]3C[C@H](Oc4cc(N5C6CCC5CN(c5cc(-c7ccccc7O)nnc5N)C6)ccn4)C3)CC2)no1 [compound 203, (2S,4R)-1-((2R)-2-(3-(2-(4-((1r,3R)-3-((4-(3-(3-amino-6-(2-hydroxyphenyl)pyridazin-4-yl)-3,8-diazabicyclo[3.2.1]octan-8-yl)pyridin-2-yl)oxy)cyclobutoxy)piperidin-1-yl)ethoxy)isoxazol-5-yl)-3-methylbutanoyl)-N-((S)-1-(4-cyanophenyl)ethyl)-4-hydroxypyrrolidine-2-carboxamide] | < 2.5 | > 75 |
| CC(C)[C@H](C(=O)N1C[C@H](O)C[C@H]1C(=O)N[C@@H](C)c1ccc(C#N)cc1)c1cc(OCCN2CCC(O[C@H]3C[C@H](Oc4cc(N5C6CCC5CN(c5cc(-c7ccccc7O)nnc5N)C6)ccn4)C3)CC2)no1 [compound 204, (2S,4R)-1-((2S)-2-(3-(2-(4-((1r,3S)-3-((4-(3-(3-amino-6-(2-hydroxyphenyl)pyridazin-4-yl)-3,8-diazabicyclo[3.2.1]octan-8-yl)pyridin-2-yl)oxy)cyclobutoxy)piperidin-1-yl)ethoxy)isoxazol-5-yl)-3-methylbutanoyl)-N-((S)-1-(4-cyanophenyl)ethyl)-4-hydroxypyrrolidine-2-carboxamide] | > 30 | > 75 |
| Cc1ncsc1-c1ccc([C@H](C)NC(=O)[C@@H]2C[C@@H](O)CN2C(=O)[C@H](c2cc(OCCN3CCN(CCCCN4CCOC5(CCN(c6cc(-c7ccccc7O)nnc6N)CC5)C4)CC3)no2)C(C)C)cc1 [compound 205, (2S,4R)-1-((S)-2-(3-(2-(4-(4-(9-(3-amino-6-(2-hydroxyphenyl)pyridazin-4-yl)-1-oxa-4,9-diazaspiro[5.5]undecan-4-yl)butyl)piperazin-1-yl)ethoxy)isoxazol-5-yl)-3-methylbutanoyl)-4-hydroxy-N-((S)-1-(4-(4-methylthiazol-5-yl)phenyl)ethyl)pyrrolidine-2-carboxamide] | > 30 | > 75 |
| Cc1ncsc1-c1ccc([C@H](C)NC(=O)[C@@H]2C[C@@H](O)CN2C(=O)[C@H](c2cc(OC/C=C/c3ccc(O[C@H]4C[C@H](Oc5cc(N6C7CCC6CN(c6cc(-c8ccccc8O)nnc6N)C7)ccn5)C4)cn3)no2)C(C)C)cn1 [compound 206, (2S,4R)-1-((2S)-2-(3-(((E)-3-(5-((1r,3S)-3-((4-(3-(3-amino-6-(2-hydroxyphenyl)pyridazin-4-yl)-3,8-diazabicyclo[3.2.1]octan-8-yl)pyridin-2-yl)oxy)cyclobutoxy)pyridin-2-yl)allyl)oxy)isoxazol-5-yl)-3-methylbutanoyl)-4-hydroxy-N-((S)-1-(6-(4-methylthiazol-5-yl)pyridin-3-yl)ethyl)pyrrolidine-2-carboxamide] | 10 to 30 | > 75 |
| Cc1ncsc1-c1ccc([C@H](C)NC(=O)[C@@H]2C[C@@H](O)CN2C(=O)[C@@H](c2cc(OC/C=C/c3ccc(O[C@H]4C[C@H](Oc5cc(N6C7CCC6CN(c6cc(-c8ccccc8O)nnc6N)C7)ccn5)C4)cn3)no2)C(C)C)cn1 [compound 207, (2S,4R)-1-((2R)-2-(3-(((E)-3-(5-((1r,3R)-3-((4-(3-(3-amino-6-(2-hydroxyphenyl)pyridazin-4-yl)-3,8-diazabicyclo[3.2.1]octan-8-yl)pyridin-2-yl)oxy)cyclobutoxy)pyridin-2-yl)allyl)oxy)isoxazol-5-yl)-3-methylbutanoyl)-4-hydroxy-N-((S)-1-(6-(4-methylthiazol-5-yl)pyridin-3-yl)ethyl)pyrrolidine-2-carboxamide] | < 2.5 | > 75 |
| Cc1ncsc1-c1ccc([C@H](C)NC(=O)[C@@H]2C[C@@H](O)CN2C(=O)[C@H](c2onc(OCCN3CCC(O[C@H]4C[C@H](Oc5cc(N6C7CCC6CN(c6cc(-c8ccccc8O)nnc6N)C7)ccn5)C4)CC3)c2F)C(C)C)cc1 [compound 208, (2S,4R)-1-((2S)-2-(3-(2-(4-((1r,3S)-3-((4-(3-(3-amino-6-(2-hydroxyphenyl)pyridazin-4-yl)-3,8-diazabicyclo[3.2.1]octan-8-yl)pyridin-2-yl)oxy)cyclobutoxy)piperidin-1-yl)ethoxy)-4-fluoroisoxazol-5-yl)-3-methylbutanoyl)-4-hydroxy-N-((S)-1-(4-(4-methylthiazol-5-yl)phenyl)ethyl)pyrrolidine-2-carboxamide] | > 30 | > 75 |
| Cc1ncsc1-c1ccc([C@H](C)NC(=O)[C@@H]2C[C@@H](O)CN2C(=O)[C@@H](c2onc(OCCN3CCC(O[C@H]4C[C@H](Oc5cc(N6C7CCC6CN(c6cc(-c8ccccc8O)nnc6N)C7)ccn5)C4)CC3)c2F)C(C)C)cc1 [compound 209, (2S,4R)-1-((2R)-2-(3-(2-(4-((1r,3R)-3-((4-(3-(3-amino-6-(2-hydroxyphenyl)pyridazin-4-yl)-3,8-diazabicyclo[3.2.1]octan-8-yl)pyridin-2-yl)oxy)cyclobutoxy)piperidin-1-yl)ethoxy)-4-fluoroisoxazol-5-yl)-3-methylbutanoyl)-4-hydroxy-N-((S)-1-(4-(4-methylthiazol-5-yl)phenyl)ethyl)pyrrolidine-2-carboxamide] | < 2.5 | > 75 |
